In patent publication US9101136B2, “Synergistic herbicide/fungicide composition containing certain pyridine carboxylic acids and certain fungicides” (Dow AgroSciences LLC, priority 2010, dated 2015):
Where a name gives a salt, the structure may show the parent alone. Read-outs that look alike come from different tables or passages of the source.

How the values were obtained:
Assay type in all cases: in vivo
[1] = test system: wild pansy (Viola tricolor L; VIOTR); assay: Postemergence herbicidal activity of mixtures on wild pansy
Protocol: (§1) Seeds of the desired test plant species were planted in Sun Gro MetroMix 306 planting mixture, which typically has a pH of 6.0 to 6.8 and an organic matter content of about 30 percent, in plastic pots with a surface area of 103.2 square centimeters (cm^2). When required to ensure good germination and healthy plants, a fungicide treatment and/or other chemical or physical treatment was applied. The plants were grown for 7-36 days (d) in a greenhouse with an approximate 14-hour (h) photoperiod which was maintained at about 18° C. during the day and 17° C. during the night. Nutrients and water were added on a regular basis and supplemental lighting was provided with overhead metal halide 1000-Watt lamps as necessary. The plants were employed for testing when they reached the second or third true leaf stage.
(§2) Treatments consisted of a cereal fungicide compound (as listed in Tables 1 through 34) and the cereal herbicide, 4-amino-3-chloro-6-(4-chloro-2-fluoro-3-methoxyphenyl)pyridine-2-carboxylic acid, alone and in combination. Weighed amounts of acid, esters (methyl) or salts (triethylammonium, TEA) of 4-amino-3-chloro-6-(4-chloro-2-fluoro-3-methoxyphenyl)pyridine-2-carboxylic acid (Compound I) were placed in 25 milliliter (mL) glass vials and dissolved in a volume of 97:3 volume-to-volume (v/v) acetone/dimethyl sulfoxide (DMSO) to obtain 4.5 milligrams active ingredient per milliliter (mg ai/mL) concentrated solutions. […] The concentrated solutions of Compound I were diluted to 1.5 mg ai/mL with the addition of 2 volumes of an aqueous mixture containing acetone, water, isopropyl alcohol, DMSO, Agri-dex crop oil concentrate, and Triton® X-77 surfactant in a 64.7:26.0:6.7:2.0:0.7:0.01 v/v ratio. A dilution solution was prepared by mixing 1 volume of 97:3 v/v acetone/DMSO and 2 volumes of an aqueous mixture containing acetone, water, isopropyl alcohol, DMSO, Agri-dex crop oil concentrate, and Triton® X-77 surfactant in a 64.7:26.0:6.7:2.0:0.7:0.01 v/v ratio. Compound requirements are based upon a 12 mL application volume at a rate of 187 liters per hectare (L/ha). The concentrated solutions of the cereal fungicides were prepared following the same procedure. Weighed amounts of fungicide were placed in 25 mL glass vials and dissolved in a volume of 97:3 v/v acetone/DMSO to obtain concentrated fungicide solutions. The concentrated solutions of the safener were prepared following the same procedure. Weighed amounts of safener were placed in 25 mL glass vials and dissolved in a volume of 97:3 v/v acetone/DMSO to obtain concentrated safener solutions.
(§3) Spray solutions of the cereal herbicide and the fungicidal compound mixtures were prepared by adding the concentrated solutions to the appropriate amount of dilution solution to form 12 mL spray solution with active ingredients in combinations. Spray solutions of the cereal herbicide, herbicide safener and the fungicidal compound mixtures were prepared by adding the concentrated solutions to the appropriate amount of dilution solution to form 12 mL spray solution with active ingredients in combinations.
(§4) Formulated compounds were applied to the plant material with an overhead Mandel track sprayer equipped with 8002E nozzles calibrated to deliver 187 L/ha over an application area of 0.503 square meters (m^2) at a spray height of 18 inches […] above average plant canopy. Control plants were sprayed in the same manner with the solvent blank.
(§5) The treated plants and control plants were placed in a greenhouse as described above and watered by sub-irrigation to prevent wash-off of the test compounds. After 20-22 d, the condition of the test plants as compared with that of the control plants was determined visually and scored on a scale of 0 to 100 percent where 0 corresponds to no injury and 100 corresponds to complete kill. […]

[2] = test system: Russian thistle (Salsola iberica L; SASKR); assay: Postemergence herbicidal activity of mixtures on Russian thistle; conditions: for SASKR Ob (observed control): alone
Protocol: as §1, §2, §3, §4, §5

[3] = test system: kochia (Kochia scoparia L; KCHSC); assay: Postemergence herbicidal activity of mixtures on kochia; set-up: KCHSC Ob: unit: %; conditions: for KCHSC Ob (observed control): alone
Protocol: as §1, §2, §3, §4, §5

[4] = test system: bird's-eye speedwell (Veronica persica L; VERPE); assay: Postemergence herbicidal activity of mixtures on bird's-eye speedwell; conditions: for VERPE Ob (observed control): alone
Protocol: as §1, §2, §3, §4, §5

[5] = test system: scented mayweed (Matricaria chamomila L; MATCH); assay: Postemergence herbicidal activity of mixtures on scented mayweed; conditions: for MATCH Ob (observed control): alone
Protocol: as §1, §2, §3, §4, §5

[6] = Viola tricolor, post-emergence, alone, read-out: VIOTR Ob (observed control)

Compound: COc1c(Cl)ccc(-c2cc(N)c(Cl)c(C(=O)O)n2)c1F [Compound I TEA Salt, 4-amino-3-chloro-6-(4-chloro-2-fluoro-3-methoxyphenyl)pyridine-2-carboxylic acid]
- VIOTR Ob ([1]; Compound I 8.75 g/ha alone): 23%
- VIOTR Ob ([1]; Compound I 17.5 g/ha alone): 40%
- VIOTR Ob ([1]; Compound I 35 g/ha alone): 47%
- pest or weed control at 17.5 g/ha ([1]; Viola tricolor, post-emergence, alone, 17.5 g/ha, read-out: VIOTR Ob (observed control)): 40%
- pest or weed control at 35 g/ha [1, 6]: 47%
- VIOTR Ob (observed control) ([1]; alone, 8.75 g/ha): 23%
- pest or weed control at 8.75 g/ha ([2]; Salsola tragus, post-emergence, Compound I 8.75 g/ha alone, read-out: SASKR Ob): 80%
- pest or weed control at 17.5 g/ha ([2]; Salsola tragus, post-emergence, Compound I 17.5 g/ha alone, read-out: SASKR Ob): 84%
- pest or weed control at 35 g/ha ([2]; Salsola tragus, post-emergence, Compound I 35 g/ha alone, read-out: SASKR Ob): 86%
- SASKR Ob (observed control) ([2]; 8.75 g/ha): 80%
- SASKR Ob (observed control) ([2]; 17.5 g/ha): 84%
- SASKR Ob (observed control) ([2]; 35 g/ha): 86%
- KCHSC Ob ([3]; Compound I 8.75 g/ha alone): 40%
- KCHSC Ob ([3]; Compound I 17.5 g/ha alone): 55%
- KCHSC Ob ([3]; Compound I 35 g/ha alone): 65%
- KCHSC Ob (observed control) ([3]; 8.75 g/ha): 40%
- KCHSC Ob (observed control) ([3]; 17.5 g/ha): 55%
- KCHSC Ob (observed control) ([3]; 35 g/ha): 65%
- VERPE Ob ([4]; Compound I 8.75 g/ha alone): 10%
- VERPE Ob ([4]; Compound I 17.5 g/ha alone): 40%
- VERPE Ob ([4]; Compound I 35 g/ha alone): 70%
- VERPE Ob (observed control) ([4]; 8.75 g/ha): 10%
- VERPE Ob (observed control) ([4]; 17.5 g/ha): 40%
- VERPE Ob (observed control) ([4]; 35 g/ha): 70%
- MATCH Ob ([5]; Compound I 8.75 g/ha alone): 40%
- pest or weed control at 17.5 g/ha ([5]; Matricaria, post-emergence, Compound I 17.5 g/ha alone, read-out: MATCH Ob): 67%
- pest or weed control at 35 g/ha ([5]; Matricaria, post-emergence, Compound I 35 g/ha alone, read-out: MATCH Ob): 73%
- MATCH Ob (observed control) ([5]; 8.75 g/ha): 40%
- MATCH Ob (observed control) ([5]; 17.5 g/ha): 67%
- MATCH Ob (observed control) ([5]; 35 g/ha): 73%

Compound: CC(C1CC1)C(O)(Cn1cncn1)c1ccc(Cl)cc1 (stereo not drawn) [Cyproconazole, α-(4-chlorophenyl)-α-(1-cyclopropylethyl)-1H-1,2,4-triazole-1-ethanol]
- pest or weed control at 19.8 g/ha ([1]; Viola tricolor, post-emergence, fungicide 19.8 g/ha alone, read-out: VIOTR Ob): 0%
- pest or weed control at 19.8 g/ha ([2]; Salsola tragus, post-emergence, fungicide 19.8 g/ha alone, read-out: SASKR Ob): 0%
- pest or weed control at 19.8 g/ha ([3]; Bassia scoparia, post-emergence, fungicide 19.8 g/ha alone, read-out: KCHSC Ob): 0%
- pest or weed control at 19.8 g/ha ([4]; Veronica persica, post-emergence, fungicide 19.8 g/ha alone, read-out: VERPE Ob): 0%
- pest or weed control at 19.8 g/ha ([5]; Matricaria, post-emergence, fungicide 19.8 g/ha alone, read-out: MATCH Ob): 0%

Compound: CCCN(CCOc1c(Cl)cc(Cl)cc1Cl)C(=O)n1ccnc1 [Prochloraz, N-propyl-N-[2-(2,4,6-trichlorophenoxy)ethyl]-1H-imidazole-1-carboxamide]
- pest or weed control at 101.25 g/ha ([1]; Viola tricolor, post-emergence, read-out: VIOTR Ob): 0%
- pest or weed control at 101.25 g/ha ([2]; Salsola tragus, post-emergence, read-out: SASKR Ob): 0%
- pest or weed control at 101.25 g/ha ([3]; Bassia scoparia, post-emergence, read-out: KCHSC Ob): 0%
- pest or weed control at 101.25 g/ha ([4]; Veronica persica, post-emergence, read-out: VERPE Ob): 0%
- pest or weed control at 101.25 g/ha ([5]; Matricaria, post-emergence, read-out: MATCH Ob): 0%

Compound: CCCC1COC(Cn2cncn2)(c2ccc(Cl)cc2Cl)O1 (stereo not drawn) [Propiconazole, 1-[[2-(2,4-dichlorophenyl)-4-propyl-1,3-dioxolan-2-yl]methyl]-1H-1,2,4-triazole]
- pest or weed control at 31.25 g/ha ([1]; Viola tricolor, post-emergence, fungicide 31.25 g/ha alone, read-out: VIOTR Ob): 0%
- pest or weed control at 31.25 g/ha ([2]; Salsola tragus, post-emergence, fungicide 31.25 g/ha alone, read-out: SASKR Ob): 0%
- pest or weed control at 31.25 g/ha ([3]; Bassia scoparia, post-emergence, fungicide 31.25 g/ha alone, read-out: KCHSC Ob): 0%
- pest or weed control at 31.25 g/ha ([4]; Veronica persica, post-emergence, fungicide 31.25 g/ha alone, read-out: VERPE Ob): 0%
- pest or weed control at 31.25 g/ha ([5]; Matricaria, post-emergence, fungicide 31.25 g/ha alone, read-out: MATCH Ob): 0%

Compound: Fc1ccc(Oc2ccnc3cc(Cl)cc(Cl)c23)cc1 [Quinoxyfen, 5,7-dichloro-4-(4-fluorophenoxy)quinoline]
- pest or weed control at 37.5 g/ha ([1]; Viola tricolor, post-emergence, alone, 37.5 g/ha, read-out: VIOTR Ob (observed control)): 0%
- pest or weed control at 37.5 g/ha ([1]; Viola tricolor, post-emergence, fungicide 37.5 g/ha alone, read-out: VIOTR Ob): 0%
- SASKR Ob (observed control) ([2]; 37.5 g/ha): 0%
- pest or weed control at 37.5 g/ha ([3]; Bassia scoparia, post-emergence, fungicide 37.5 g/ha alone, read-out: KCHSC Ob): 0%
- KCHSC Ob (observed control) ([3]; 37.5 g/ha): 0%
- VERPE Ob (observed control) ([4]; 37.5 g/ha): 0%
- MATCH Ob (observed control) ([5]; 37.5 g/ha): 0%

Compound: CO/N=C(/C(=O)OC)c1ccccc1CO/N=C(\C)c1cccc(C(F)(F)F)c1 [Trifloxystrobin, methyl (αE)-α-(methoxyimino)-2-[[[[(1E)-1-[3-(trifluoromethyl)phenyl]ethylidene]amino]oxy]methyl]benzeneacetate]
- pest or weed control at 62.5 g/ha ([1]; Viola tricolor, post-emergence, alone, 62.5 g/ha, read-out: VIOTR Ob (observed control)): 0%
- SASKR Ob (observed control) ([2]; 62.5 g/ha): 0%
- KCHSC Ob (observed control) ([3]; 62.5 g/ha): 0%
- VERPE Ob (observed control) ([4]; 62.5 g/ha): 0%
- MATCH Ob (observed control) ([5]; 62.5 g/ha): 0%

Compound: CCCCCC(C)OC(=O)COc1ccc(Cl)c2cccnc12 (stereo not drawn) [cloquintocet-mexyl]
- pest or weed control at 4.4 g/ha ([1]; Viola tricolor, post-emergence, alone, 4.4 g/ha, read-out: VIOTR Ob (observed control)): 0%
- pest or weed control at 35 g/ha [1, 6]: 0%
- SASKR Ob (observed control) ([2]; 4.4 g/ha): 0%
- SASKR Ob (observed control) ([2]; 35 g/ha): 0%
- KCHSC Ob (observed control) ([3]; 4.4 g/ha): 0%
- KCHSC Ob (observed control) ([3]; 35 g/ha): 0%
- VERPE Ob (observed control) ([4]; 4.4 g/ha): 0%
- VERPE Ob (observed control) ([4]; 35 g/ha): 0%
- MATCH Ob (observed control) ([5]; 4.4 g/ha): 0%
- MATCH Ob (observed control) ([5]; 35 g/ha): 0%

Compound: [[2-[(dithiocarboxy)amino]ethyl]carbamo-dithioato(2^−)-κS,κS′]manganese mixture with [[2-[(dithiocarboxy)amino]ethyl]carbamo-dithioato(2^−)-κS,κS′]zinc [Mancozeb]
- VIOTR Ob ([1]; fungicide 281.25 g/ha alone): 0%
- SASKR Ob ([2]; fungicide 281.25 g/ha alone): 0%
- KCHSC Ob ([3]; fungicide 281.25 g/ha alone): 0%
- VERPE Ob ([4]; fungicide 281.25 g/ha alone): 0%
- MATCH Ob ([5]; fungicide 281.25 g/ha alone): 0%
